Reference: patent publication US20230105108A1, “COMPOUNDS FOR THE TREATMENT OF BACTERIAL INFECTIONS AND POTENTIATION OF ANTIBIOTICS” (GEORGIA STATE UNIVERSITY RESEARCH FOUNDATION, INC., priority 2019, published 2023)
Counter-ions that a name gives are not always drawn. Like-named read-outs stand apart in the source and are kept apart here.

Assays:
Assay type in all cases: cell-based
[1] = system: B. subtilis; assay: MIC determination and sensitization fold on B. subtilis; settings: for MIC: Bacillus subtilis, 24 h, compound alone, read-out: MIC; for sensitization fold with 5.5 μg/ml DB2560: B. subtilis towards the antibiotic
[2] = system: E. coli (ATCC 25922); assay: MIC determination, sensitization fold and FIC index on E. coli; settings: for Sensitization: compound up to 25 μM; for MIC: Escherichia coli; for MIC of AB with MD-124: MD-124 concentration 5 μg/ml
Description: Bacteria culture and MICs determination: Gram-negative bacteria were cultured in Mueller Hinton II cation-adjusted broth. Gram-positive bacteria were cultured in LB broth. Mycobacterium smegmatis was cultured in Middlebrook 7H9 Broth. MICs of antibiotics itself were determined by performing two-fold serial dilutions of antibiotics. MICs of antibiotics in the presence of bacterial sensitizers were determined by performing two-fold serial dilutions of antibiotics with or without a constant concentration of bacterial sensitizers. The MICs tests were performed on 96-well plates with a final volume of 200 μl Mueller Hinton II cation-adjusted broth in each well. Each well was inoculated with 5×10^5 CFU/ml bacteria and was incubated for 24 h at 37° C. with continuous shaking of 200 rpm. The bacterial density was then determined by OD600. Bacterial growth %=OD600 of antibiotic treatment group/OD600 of antibiotic non-treatment group. MICs was determined as the concentrations that inhibit more than 90% of bacteria growth.
Sensitization fold determination and FIC index calculations: Sensitization fold=MIC of antibiotic only/MIC of antibiotic with bacterial sensitizer. […] Since the MICs were determined by performing two-fold serial dilutions of antibiotic, so the sensitization fold can is the times of 2.
FIC index between compound a and b was calculated according to the formula below: […]
FIC≤0.5: Synergy; FIC between 0.5 and 1: Additive; FIC between 1 and […]: no interaction; FIC >4: antagonism.
Bacteria strains (as indicated in Table 5B) were cultured with rifampicin at various concentrations in the presence or absence of 10 μM of the indicated compound for 20 h at 37° C. The MIC, sensitization, cytotoxicity, and MIC on mycobacteria were tested according to methods described herein. […] The sensitization activities of compounds on MRSA were tested using rifampicin. The sensitization activities of compounds on E. coli were tested using rifampicin.

[3] = Cytotoxicity in H9c2 cells (CCK-8); settings: rat, H9c2 cells; H9c2 cell line
Description: The cytotoxicity in H9c2 (ATCC®CRL-1446™) cells was also determined. The H9c2 cells were maintained in DMEM (Dulbecco's Modified Eagle's Medium) supplemented with 10% fetal bovine serum (MidSci; S01520HI) and 1% penicillin-streptomycin (Sigma-Aldrich; P4333) at 37° C. with 5% CO2. The H9c2 cells were seeded in 96-well plate one day before the experiment. Different concentrations of di-amidine compounds were added into the H9c2 cells. The cells were then incubated with the compounds for 24 hours at 37° C. with 5% CO2. The cell viability was tested by the CCK-8. Specifically, after 24 hour incubation, 10 μL CCK-8 was added to each well. After 3 hours incubation at 37° C., the absorbance at 450 nm was recorded by a plate reader.

[4] = system: NDM-1 expressing E. coli strain; assay: microbe, parasite or virus in culture; settings: Escherichia coli; antibiotic alone (Table 14); read-out: MIC on NDM-1 over-expression E. coli
[5] = system: mcr-1 over-expressing E. coli strains; assay: microbe, parasite or virus in culture; settings: Escherichia coli
[6] = ATCC25922, 24 h, E. coli, compound alone, read-out: MIC
[7] = E. coli towards the antibiotic, MD-124 5 μg/ml
[8] = ATCC25922, 24 h, E. coli (wild type), antibiotic alone, read-out: MIC of AB only
[9] = B. subtilis, erythromycin, compound at 6 μM
[10] = B. subtilis, erythromycin, compound at 12 μM
[11] = E. coli, rifampicin, compound at 25 μM
[12] = E. coli, rifampicin, compound at 10 μM

## N=C(N)c1ccc(OCOc2ccc(C(=N)N)cc2)cc1 [DB1824]
[1]; B. subtilis, erythromycin, compound at 12.5 μM
  Sensitization fold: 2-fold at 12.5 μM,
[1]; B. subtilis
  MIC: 12.5 µM
[2]; E. coli, rifampicin
  Sensitization: No effect up to 25 μM
[2]; [6]
  MIC: > 100 µM
[3]
  CC50 at 24 h: > 100 µM

## CC[C@H]1OC(=O)[C@H](C)[C@@H](O[C@H]2C[C@@](C)(OC)[C@@H](O)[C@H](C)O2)[C@H](C)[C@@H](O[C@@H]2O[C@H](C)C[C@H](N(C)C)[C@H]2O)[C@](C)(O)C[C@@H](C)CN(C)[C@H](C)[C@@H](O)[C@]1(C)O [Azithromycin, reference compound]
[2]; [7]
  Sensitization fold: 16 fold
[2]; E. coli
  MIC of AB with MD-124: 400 ng/mL
[2]; [8]
  MIC: 6200 ng/mL

## Cc1ccc(COc2ccc(C(=N)N)cc2)cc1COc1ccc(C(=N)N)cc1 [MD-119, 1,3-Bis {(4-amidino)-phenoxymethyl}-6-methylbenzene dihydrochloride]
[1]; [9]
  Sensitization fold: 16-fold at 6 μM
[1]; [10]
  Sensitization fold: 32-fold at 12 μM,
[1]; B. subtilis
  MIC: 25 µM
[2]; E. coli, rifampicin, compound at 12.5 μM
  Sensitization fold: 4-fold at 12.5 μM.
[2]; [11]
  Sensitization fold: 32-fold at 25 μM,
[2]; ATCC25922, 24 h
  MIC: 100 µM

## CC(C)(O/N=C(\C(=O)N[C@@H]1C(=O)N2C(C(=O)[O-])=C(C[n+]3ccccc3)CS[C@H]12)c1csc(N)n1)C(=O)O [Ceftazidime, reference compound]
[4]
  MIC: > 6250 ng/mL
[2]; ATCC25922, antibiotic alone (Table 14), read-out: MIC on wild-type E.coli
  MIC: < 200 ng/mL

## COc1cc(C2=NCCN2)ccc1OCc1cccc(COc2ccc(C3=NCCN3)cc2OC)c1F [DB2555, dihydrochloride]
[2]; E. coli, rifampicin
  Sensitization: No effect up to 25 μM
[2]; [6]
  MIC: > 50 µM
[3]
  CC50 at 24 h: 50 µM

## C[C@@H](O)[C@H]1C(=O)N2C(C(=O)O)=C(S[C@@H]3CN[C@H](C(=O)Nc4cccc(C(=O)O)c4)C3)[C@H](C)[C@H]12 [entrapenem, reference compound]
[1]
  sensitization fold with 5.5 μg/ml DB2560: 4 fold

## C[C@H]1COc2c(N3CCN(C)CC3)c(F)cc3c(=O)c(C(=O)O)cn1c23 [Levofloxacin, reference compound]
[2]; [7]
  Sensitization fold: 8 fold
[2]; E. coli
  MIC of AB with MD-124: 6.2 ng/mL
[2]; [8]
  MIC: 50 ng/mL

## N=C(N)c1ccc(COc2cc(OCc3ccc(C(=N)N)cc3F)cc(C(F)(F)F)c2)c(F)c1 [MD-127, dihydrochloride]
[2]; [12]
  Sensitization fold: 516-fold at 10 μM
[2]; [6]
  MIC: 100 µM

## COc1cccc(OC)c1C(=O)N[C@@H]1C(=O)N2[C@@H]1SC(C)(C)[C@@H]2C(=O)O [methicillin, reference compound]
[1]
  sensitization fold with 5.5 μg/ml DB2560: 4 fold

## CO[C@H]1/C=C/O[C@@]2(C)Oc3c(C)c(O)c4c(O)c(c(/C=N/N5CCN(C6CCCC6)CC5)c(O)c4c3C2=O)NC(=O)/C(C)=C\C=C\[C@H](C)[C@H](O)[C@@H](C)[C@@H](O)[C@@H](C)[C@H](OC(C)=O)[C@@H]1C [Rifapentine, reference compound]
[2]; [7]
  Sensitization fold: 32 fold
[2]; E. coli
  MIC of AB with MD-124: 800 ng/mL
[2]; [8]
  MIC: 25000 ng/mL

## Cc1cc(-c2nc3cc(C(=N)N)ccc3n2C)sc1-c1ccc(OCCCCOc2ccc(C(=N)N)cc2)cc1 [DB2583]
[1]; [10]
  Sensitization fold: 16-fold at 12 μM
[1]; B. subtilis
  MIC: 25 µM
[2]; E. coli, rifampicin
  Sensitization: No effect up to 25 μM
[2]; [6]
  MIC: 100 µM
[3]
  CC50 at 24 h: 12.5 µM

## CO[C@H]1/C=C/O[C@@]2(C)Oc3c(C)c(O)c4c(O)c(c5c(nc6cc(C)ccn65)c4c3C2=O)NC(=O)/C(C)=C\C=C\[C@H](C)[C@H](O)[C@@H](C)[C@@H](O)[C@@H](C)[C@H](OC(C)=O)[C@@H]1C [Rifaximin, reference compound]
[2]; [7]
  Sensitization fold: 64 fold
[2]; E. coli
  MIC of AB with MD-124: 200 ng/mL
[2]; [8]
  MIC: 12500 ng/mL

## N=C(N)c1ccc(OCc2cccc(COc3ccc(C(N)=O)cc3)n2)cc1 [DB2449]
[1]; B. subtilis, erythromycin, compound up to 25 μM
  Sensitization: No effect up to 25 μM
[1]; B. subtilis
  MIC: > 50 µM
[2]; E. coli, rifampicin
  Sensitization: No effect up to 25 μM
[2]; [6]
  MIC: > 100 µM
[3]
  CC50 at 24 h: > 100 µM

## Fc1c(COc2ccc(C3=NCCN3)cc2)cccc1COc1ccc(C2=NCCN2)cc1 [DB2510, 1,3-Bis {(4-(2-imidazolino))-phenoxymethyl}-2-fluorobenzene dihydrochloride]
[2]; E. coli, rifampicin
  Sensitization: No effect up to 25 μM
[2]; [6]
  MIC: > 50 µM
[3]
  CC50 at 24 h: 25 µM

## N[C@@H]1CCCCN(c2c(F)cc3c(=O)c(C(=O)O)cn(C4CC4)c3c2Cl)C1 [Besifloxacin, reference compound]
[2]; [7]
  Sensitization fold: 8 fold
[2]; E. coli
  MIC of AB with MD-124: 12.5 ng/mL
[2]; [8]
  MIC: 100 ng/mL

## CC[C@H]1OC(=O)[C@H](C)[C@@H](O[C@H]2C[C@@](C)(OC)[C@@H](O)[C@H](C)O2)[C@H](C)[C@@H](O[C@@H]2O[C@H](C)C[C@H](N(C)C)[C@H]2O)[C@](C)(O)C[C@@H](C)C(=O)[C@H](C)[C@@H](O)[C@]1(C)O [Erythromycin, reference compound]
[1]; B. subtilis
  MIC of erythromycin in the absence of DB2560: 0.05 ng/mL
  MIC of erythromycin in the presence of DB2560: 0.0015 ng/mL
[2]; E. coli
  MIC of AB with MD-124: 400 ng/mL
[2]; ATCC25922, read-out: MIC of erythromycin in the presence of 10 μg/ml MD-100, wild-type E. coli
  MIC: 1600 ng/mL

## Cc1onc(-c2ccccc2Cl)c1C(=O)N[C@@H]1C(=O)N2[C@@H]1SC(C)(C)[C@@H]2C(=O)O [Cloxacillin, reference compound]
[2]; [7]
  Sensitization fold: >4 fold
[2]; E. coli
  MIC of AB with MD-124: 75000 ng/mL
[2]; [8]
  MIC: > 300000 ng/mL

## Fc1cc(C2=NCCN2)ccc1OCc1cccc(COc2ccc(C3=NCCN3)cc2F)c1F [DB2554, 1,3-Bis {4-(2-imidazolino)-2-fluoro)-phenoxy methyl}-2-fluorobenzene dihydrochloride]
[2]; E. coli, rifampicin
  Sensitization: No effect up to 25 μM
[2]; [6]
  MIC: > 50 µM
[3]
  CC50 at 24 h: 50 µM

## polymyxin B nonapeptide [PMBN, reference compound]
[2]; E. coli, rifampicin, 20 μg/ml bacterial sensitizer
  Sensitization fold: 16 fold

## COc1c(N2C[C@@H]3CCCN[C@@H]3C2)c(F)cc2c(=O)c(C(=O)O)cn(C3CC3)c12 [Moxifloxacin, reference compound]
[2]; [7]
  Sensitization fold: 8 fold
[2]; E. coli
  MIC of AB with MD-124: 6.2 ng/mL
[2]; [8]
  MIC: 50 ng/mL

## N=C(N)c1ccc(OCCCCCCOc2ccc(C(=N)N)cc2)cc1 [DB2362]
[1]; [9]
  Sensitization fold: 4-fold at 6 μM
[2]; [11]
  Sensitization fold: 8-fold at 25 μM;
[2]; [6]
  MIC: 50 µM
[3]
  CC50 at 24 h: 25 µM

## N=C(N)c1ccc(CCc2cc(CCc3ccc(C(=N)N)cc3)cc(C(F)(F)F)c2)cc1 [MD-128, 1,3-Bis {(4-amidino)-phenethyl}-5-trifluoromethylbenzene dihydrochloride]
[2]; [12]
  Sensitization fold: 516-fold at 10 μM
[2]; ATCC25922, 24 h
  MIC: 100 µM

## CC[C@H]1OC(=O)[C@H](C)[C@@H](O[C@H]2C[C@@](C)(OC)[C@@H](O)[C@H](C)O2)[C@H](C)[C@@H](O[C@@H]2O[C@H](C)C[C@H](N(C)C)[C@H]2O)[C@](C)(OC)C[C@@H](C)C(=O)[C@H](C)[C@@H](O)[C@]1(C)O [Clarithromycin]
[5]; mcr-1 over-expression E. coli strain (MIC of polymyxin B 30 μg/ml), read-out: MIC of AB only
  MIC: 25000 ng/mL
[5]; read-out: MIC of AB with 5 μg/ml MD-124, mcr-1 over-expression E. coli strain (MIC of polymyxin B 30 μg/ml)
  MIC: ≤ 200 ng/mL

## N=C(N)c1ccc(OCc2cccc(COc3ccc(C(=N)N)cc3)n2)cc1 [DB2447]
[1]; B. subtilis, erythromycin, compound at 2 μM
  Sensitization fold: No effect at 2 μM.
[2]; E. coli, rifampicin
  Sensitization: No effect up to 25 μM
[2]; [6]
  MIC: 100 µM
[3]
  CC50 at 24 h: > 100 µM

## c1cc(COc2ccc(C3=NCCN3)cc2)cc(COc2ccc(C3=NCCN3)cc2)c1 [DB2538, 1,3-Bis {(4-(2-imidazolino))-phenoxymethyl}-benzene dihydrochloride]
[1]; [10]
  Sensitization fold: 4-fold at 12 μM
[1]; B. subtilis
  MIC: > 50 µM
[2]; E. coli, rifampicin
  Sensitization: No effect up to 25 μM
[2]; [6]
  MIC: > 50 µM
[3]
  CC50 at 24 h: < 12.5 µM
